According to patent US20220218614A1, “IONIZABLE CATIONIC LIPIDS AND LIPID NANOPARTICLES, AND METHODS OF SYNTHESIS AND USE THEREOF” (Tidal Therapeutics, Inc., priority 2020, published 2022):
“And” between values parts separate entries of the source, which are not always exact repeats. Equal entries are not always repeated. “Also recorded” adds a separate entry of the source.

Key:
[1] = Apparent pKa of LNPs by TNS fluorescent probe; type: physicochemical; conditions: LNP made with the named ionizable lipid; pH at 50% of maximum TNS fluorescence
Excerpt: This example describes the fluorescent dye based method used for measurement of the apparent pKa of the lipid nanoparticles. Apparent pKa determines the nanoparticle surface charge under physiological pH conditions, typically a pKa value in the endosomal pH range (6-7.4) results in LNPs that are neutral or slightly charged at plasma or the extracellular space (pH 7.4) and become strongly positive under acidic endosomal environments. This positive surface charge drives fusion of the LNP surface with negatively charged endosomal membranes resulting in destabilization and rupture of the endosomal compartment and LNP escape into the cytosolic compartment, a critical step in cytosolic delivery of mRNA and protein expression via engagement of the cells ribosomal machinery.
The apparent pKa of LNPs made using ionizable Lipids 2, 5 (synthesized as described in example 1), 6 and 7 (synthesized using method analogous to Lipid 2, 5, respectively, except using diethyl amine instead of dimethyl amine to incorporate the tertiary amine head group) were determined by 6-(p-Toluidino)-2-naphthalenesulfonic acid (TNS) fluorescence measurement in aqueous buffers covering a range of pH values (pH 4-pH 10). TNS is non-fluorescent when free in solution, but which fluoresces strongly when associated with a positively charged lipid nanoparticle. At a pH values below the pKa of the nanoparticle, positive LNP surface charge results in dye recruitment at the particle interface resulting in TNS fluorescence. At pH values above the LNP pKa no fluorescence is observed. The apparent pKa of the LNP is reported as the pH at which the fluorescence is at 50% of its maximum, as determined using a four-point logistic curve fit.

[2] = tested on: primary human T-cells (CD3+ T cells); experiment: In vitro LNP transfection of primary human T-cells (GFP, Cy5 or DiI, viability by FACS); type: cell-based; conditions: for T-cell viability / tolerability, in words / LNP association with cells (% Cy5+/Cy5 MFI or % DiI+/DiI MFI), in words: hSP34 targeted LNP; for T-cell viability / tolerability, in words / GFP protein expression (% GFP+ cells, GFP MFI), in words / LNP association with cells (% Cy5+/Cy5 MFI or % DiI+/DiI MFI), in words: 24 hours; for T-cell viability / tolerability, in words: dose as in the value; for GFP protein expression (% GFP+ cells, GFP MFI), in words: hSP34 targeted LNP with GFP mRNA; for T-cell viability (% live): PBS control about 50%
Excerpt: This example describes the protocol used for in vitro LNP transfections in primary human T-cells. This method is used to assess LNP in vitro efficacy in relevant target cells (CD3+ T cells) by first transfecting the cells using LNPs loaded with mRNA encoding for a reporter gene, such as GFP mRNA, and then assessing transfection by measuring reporter gene expression by fluorescence-[…] cell sorting (FACS). Additionally, particle association with cells may be observed by in the same assay by labeling individual nanoparticle components, such as the mRNA, with a fluorescent dye, such as Cy5, and then observing cell/dye association by FACS.
CD3+ T cells were isolated from frozen peripheral blood mononuclear cells using an EasySep Human T Cell Isolation Kit on a RoboSep automated cell isolation system from […]. T cells were plated into a flat bottom 96-well plate in RPMI cell culture media supplemented with glutamax, 10% fetal bovine serum, and 40 ng/mL IL2. 100 μL of cell suspension was seeded per well at a density of 1M T cells/mL (100K T cells/well). Cells were allowed to rest for two hours in a 37° C. incubator, and then were transfected by gently adding 10 μL of a 22 μg/mL (by mRNA) nanoparticle suspension, resulting in a final mRNA concentration of 2 μg/mL. Cells were gently mixed with a pipette and then incubated for 24 hours in a 37° C. incubator. After incubation the cells were analyzed using an ThermoFisher Attune NXT flow cytometer. Cy5 was detected using a 638 nm laser with 670/14 nm filter. eGFP was detected using a 488 nm laser and a 530/30 nm filter. Data were analyzed using FlowJo software from BD biosciences. FACS data were first gated to exclude doublets and dead cells and then gated for GFP and Cy5. Gates for GFP+ and Cy5+were set such that a control sample (PBS treated T cells) was <0.1% positive.
CD3+ T cells were isolated from frozen peripheral blood mononuclear cells using an EasySep Human T Cell Isolation Kit on a RoboSep automated cell isolation system from […]. T cells were plated into a round bottom 96-well plate in RPMI cell culture media supplemented with glutamax, 10% fetal bovine serum, pen-strep, and 40 ng/mL IL-2. 100 μL of cell suspension was seeded per well at a density of 1M T cells/mL (100K T cells/well). Cells were allowed to rest for two hours in a 37° C. incubator, and then were transfected by gently adding 10 μL of a 22 μg/mL (by mRNA) nanoparticle suspension, resulting in a final mRNA concentration of 2 μg/mL (unless otherwise noted). Cells were gently mixed with a pipette and then incubated for 24 hours in a 37° C. incubator. After incubation the cells were diluted with FACS buffer (BD 554657) and analyzed using a BD Fortessa flow cytometer. Data were analyzed using FlowJo software from BD biosciences.

[3] = Quant-iT RiboGreen RNA assay: dye accessible and total (Triton) mRNA content, encapsulation; type: physicochemical
Protocol: RNA content of the nanoparticles is measured using Thermo Fisher Quant-iT RiboGreen RNA Assay Kit. Dye accessible RNA, which includes both non-incorporated RNA and RNA that is near the surface of the nanoparticle, is measured by diluting the nanoparticles to approximately 1 μg/mL mRNA using HEPES buffered saline, and then adding Quant-iT reagent to the mixture. Total RNA content is measured by diluting the particles to 1 μg/mL mRNA using HEPES buffered saline, disrupting the nanoparticles by heating them to 60° C. for 30 minutes in HEPES buffered saline containing 0.5% Triton, and then adding Quant-It reagent. RNA is quantified by measuring fluorescence at 485/535 nm, and concentration is determined relative to a contemporaneously run RNA standard curve.

[4] = Hydrodynamic diameter and polydispersity of LNPs by dynamic light scattering (DLS), Zetasizer; type: physicochemical
Protocol: (§1) Samples of the LNPs produced in Example 2 were characterized to determine the average hydrodynamic diameter, zeta potential, and mRNA content (total and dye-accessible). The hydrodynamic diameter was determined by dynamic light scattering (DLS) using a Zetasizer model ZEN3600 (Malvern Pananalytical, UK). The zeta potential was measured in 5 mM pH 5.5 MES buffer and 5 mM pH 7.4 HEPES buffer by laser Doppler electrophoresis using the Zetasizer.

[5] = Zeta potential of LNPs by laser Doppler electrophoresis in 5 mM pH 5.5 MES and 5 mM pH 7.4 HEPES buffer; type: physicochemical; conditions: pH 5.5 MES and pH 7.4 HEPES buffer
Protocol: as §1

[6] = Table 25: Lipid 8 and Lipid 5 LNP, theoretical total mRNA 45 ug/mL
[7] = Table 10: Lipid 5 and Lipid 7 LNP, theoretical total mRNA 50 μg/mL
[8] = Table 11A: Lipid 5, Lipid 8 and DLn-MC3-DMA LNP, vortexer mixing, theoretical total mRNA 42.5 ug/mL
[9] = Table 11A: vortexer mixing, theoretical total mRNA 42.5 ug/mL

SMILES	T-cell viability / tolerability, in words [2]	GFP protein expression (% GFP+ cells, GFP MFI), in words [2]	Measured total (Triton method) mRNA [3, 6]	Ribogreen Dye Accessible mRNA [3, 6]	further results
CCCCC/C=C\C/C=C\CCCCCCCC(=O)OC[C@H](COC(=O)CCCN(C)C)OC(=O)CCCCCCC/C=C\C/C=C\CCCCC [Lipid 2]	well tolerated by T-cells at all LNP doses tested				apparent pKa of LNP (TNS) [1]: 7.5
CCCCC/C=C\C/C=C\CCCCCCCC(=O)OC[C@H](COC(=O)CCN(CCO)CCO)OC(=O)CCCCCCC/C=C\C/C=C\CCCCC [Lipid 13]	well tolerated by T-cells at all LNP doses tested	performed poorly			
CCCCC/C=C\C/C=C\CCCCCCCC(=O)OC[C@H](COC(=O)CCN(C)CCO)OC(=O)CCCCCCC/C=C\C/C=C\CCCCC [Lipid 12]	well tolerated by T-cells at all LNP doses tested	performed poorly			
CCCCC/C=C\C/C=C\CCCCCCCC(=O)OC[C@H](CCN(C)C)OC(=O)CCCCCCC/C=C\C/C=C\CCCCC [Lipid 5 (N)]			36 µg/mL	7 µg/mL	
CCCCC/C=C\C/C=C\CCCCCCCC(=O)OCC(CCN(CC)CC)OC(=O)CCCCCCC/C=C\C/C=C\CCCCC (stereo not shown) [Lipid 7]	well tolerated by T-cells at and below 0.5 μg/mL dose	Dose dependent expression of GFP protein; also recorded: significantly lower level of GFP protein expression relative to Lipid 5 LNP formulation			% Dye Accessible mRNA ([3]; Table 10: Lipid 5 and Lipid 7 LNP): 14%; Measured total (Triton method) mRNA [3, 7]: 43 µg/mL; Ribogreen Dye Accessible mRNA [3, 7]: 6 µg/mL; apparent pKa of LNP (TNS) [1]: ~6.3 and ~6.4; LNP association with cells (% Cy5+/Cy5 MFI or % DiI+/DiI MFI), in words [2]: equally associated with cells
CCCCC/C=C\C/C=C\CCCCCCCCC(CCCCCCCC/C=C\C/C=C\CCCCC)OC(=O)CCCN(C)C [DLn-MC3-DMA, DLin-MC3-DMA, reference compound]	better tolerated at higher doses	failed to express GFP protein			polydispersity after antibody conjugate insertion [4]: 0.2; LNP surface charge (zeta potential), in words [5]: positive zeta potential at pH 5.5, and either near neutral or slightly negative charge at pH 7.4; Measured total (Triton method) mRNA [3, 8]: 33 µg/mL; Ribogreen Dye Accessible mRNA [3, 9]: 2 µg/mL
CCCCC/C=C\C/C=C\CCCCCCCC(=O)OC[C@H](CCN(C)C)OC(=O)CCCCCCC/C=C\C/C=C\CCCCC [Lipid 5 (O)]			38 µg/mL	7 µg/mL	
CCCCC/C=C\C/C=C\CCCCCCCCC1(CCCCCCCC/C=C\C/C=C\CCCCC)OCC(CCN(C)C)O1 (stereo not shown) [Lipid 8, reference compound]	slightly lower viability at higher dose of 2 μg/mL; also recorded: dose dependent toxicity towards T-cells; also recorded: well tolerated by T-cells at and below 1.0 μg/mL dose	Dose dependent expression of GFP protein	40 µg/mL	4 µg/mL	polydispersity after antibody conjugate insertion [4]: 0.2; LNP surface charge (zeta potential), in words [5]: positive zeta potential at pH 5.5, and either near neutral or slightly negative charge at pH 7.4; Measured total (Triton method) mRNA [3, 8]: 30 µg/mL; Ribogreen Dye Accessible mRNA [3, 9]: 3 µg/mL; T-cell viability (% live) ([2]; 0.125 ug mRNA/mL per well): about 45%; T-cell viability (% live) ([2]; 2 ug mRNA/mL per well): about 25%; LNP association with cells (% Cy5+/Cy5 MFI or % DiI+/DiI MFI), in words [2]: equally associated with cells
